In US20050245594A1, “Dermal delivery of anti-pain agents and methods useful thereof” (priority 2001, published 2005):
Read-outs that look alike come from different tables or passages of the source.

Key:
[1] = Crossover PK study: plasma sumatriptan by LC/MS/MS after ID/junctional vs SC administration (Tmax, Cmax, AUC, relative F); type: in vivo, Yucatan miniswine; settings: for rel. F 10 min / rel. F Total: compared to SC; for Cmax / AUC: minipig, plasma; for AUC: read-out: AUC 10 mm. (converted)
Protocol: Percent (%) relative Bioavailability (F) for each dosing condition was calculated compared to the SC condition: [formula]

[2] = test system: Yorkshire Swine skin (injection site); settings: pig, in vivo
Protocol: A total of 12 Yorkshire Swine (Archer Farms) were used. Each pig received one injection according to a randomization schedule (RS) once a day for a total of nine injections. Animals were not exposed to all possible injection combinations, because of the incomplete block design.
These skin sites were observed immediately upon removal of the device and at 30 minutes, 1, 2, 3, 4, 6, 8 and 24 hours and skin effects documented using the Draize Dermal Irritation method. […] Responder pigs were assigned to the following pig numbers on the randomization table in the following order: 1, 4, 2, 5, 3, and 6.
Syringe based microneedle systems: 30 gauge 1.5 mm ID needle with skin penetration limiter (Lot #E216801); 2 mm ID needle with limiter incorporating a 30 gauge ½ inch length needle with an ID bevel and a skin penetration limiter to allow 2 mm penetration; 3 mm needle with limiter incorporating a 30 gauge ½ inch length needle with a bevel and a skin penetration limiter to allow 3 mm penetration. All syringe based devices were connected to an accurate leur lock (LL) volumetric syringe for measuring the dose volume, and were administered in a bolus injection fashion using manual control of delivery rate.
During the delivery period, the microneedle array is held in place flat against the skin via an integral adhesive ring incorporated on the hub. The catheter hub is also connected via an integral length of medical grade tubing to a Leur inlet, which is in turn connected to a 1 ml syringe as the drug reservoir. The flow rate and delivery volume from the syringe are controlled via a programmable, highly accurate volumetric syringe pump.
Pigs were fasted for 12-18 hours prior to anesthesia. A mixture of Rompun® (2 mg/kg), Telazol® (4 mg/kg), and Ketamine (2 mg/kg) were given IM to sedate. Atropine (0.02 mg/kg) was given IM directly after sedation to avoid excessive salivation. Swine were masked down with Isoflurane if needed during the injection time.
TREATMENT DAY 1: The hair on both flanks of the pig were clipped and the skin wiped clean with chlorohexaderm scrub and alcohol. A clean, unblemished area was selected. Injection was performed according to a randomization schedule.
For 34-gauge catheter set devices, a BD 1 mL LL syringe and a Harvard syringe pump were used to control flow rate (100 μl/min). Devices remained in place for 1 minute following the injection. For 30-gauge syringe system, injections were performed over 50-60 seconds using manual rate control. After injection, photos were taken of skin effects. The skin site was marked with a permanent skin marker for later identification of site. Pigs were recovered in their runs.
TREATMENT DAY 2-9: All steps from Day 1 were repeated on alternate flanks of each pig following a pre-assigned randomization schedule.
The model included a pig effect, time effect, gauge, depth and solution main effects as well as all two-way interactions.

[3] = Yucatan miniswine, 1 × 1.5 mm × 30 g, 0 mg/ml
[4] = Yucatan miniswine, 1 × 2 mm × 30 g, 30 mg/ml
[5] = Yucatan miniswine, 1 × 3 mm × 30 g, 30 mg/ml
[6] = Yucatan miniswine, 3 × 2 mm × 34 g, 30 mg/ml
[7] = Yucatan miniswine, sc, 12 mg/ml
[8] = Yucatan, 3 × 3 mm × 34 g, 12 mg/ml

CNS(=O)(=O)Cc1ccc2[nH]cc(CCN(C)C)c2c1 [sumatriptan, 3-[2-(dimethylamino)ethyl]-N-methyl-indole-5-methanesulfonamide]
AUC total ([1]; 1 × 1.5 mm × 30 g, 0 mg/ml): 27696.167 ng·min/mL | rel. F 10 min ([1]; 1 × 1.5 mm × 30 g, 0 mg/ml): 186.777% | rel. F Total ([1]; 1 × 1.5 mm × 30 g, 0 mg/ml): 117.806% | AUC total ([1]; 1 × 2 mm × 30 g, 30 mg/ml): 23548.167 ng·min/mL | rel. F 10 min ([1]; 1 × 2 mm × 30 g, 30 mg/ml): 165.993% | rel. F Total ([1]; 1 × 2 mm × 30 g, 30 mg/ml): 100.162% | AUC total ([1]; 1 × 3 mm × 30 g, 30 mg/ml): 27335.167 ng·min/mL | rel. F 10 min ([1]; 1 × 3 mm × 30 g, 30 mg/ml): 190.490% | rel. F Total ([1]; 1 × 3 mm × 30 g, 30 mg/ml): 116.270% | AUC total ([1]; 3 × 2 mm × 34 g, 30 mg/ml): 30006.000 ng·min/mL | rel. F 10 min ([1]; 3 × 2 mm × 34 g, 30 mg/ml): 153.272% | rel. F Total ([1]; 3 × 2 mm × 34 g, 30 mg/ml): 127.631% | AUC total ([1]; 3 × 3 mm × 34 g, 12 mg/ml): 25642.833 ng·min/mL | rel. F 10 min ([1]; 3 × 3 mm × 34 g, 12 mg/ml): 116.434% | rel. F Total ([1]; 3 × 3 mm × 34 g, 12 mg/ml): 109.072% | AUC total ([1]; 3 × 3 mm × 34 g, 30 mg/ml): 25947.667 ng·min/mL | rel. F 10 min ([1]; 3 × 3 mm × 34 g, 30 mg/ml): 117.806% | rel. F Total ([1]; 3 × 3 mm × 34 g, 30 mg/ml): 110.369% | AUC total ([1]; IV, 12 mg/ml): 16626.000 ng·min/mL | rel. F 10 min ([1]; IV, 12 mg/ml): 131.820% | rel. F Total ([1]; IV, 12 mg/ml): 70.719% | Maximum concentration levels at early time points ([1]; Intradermal and/or junctional administration vs SC): elevated | AUC total ([1]; SC, 12 mg/ml): 23510.000 ng·min/mL | rel. F 10 min ([1]; SC, 12 mg/ml): 100.000% | rel. F Total ([1]; SC, 12 mg/ml): 100.000% | Cmax [1, 3]: 824 ng/mL | AUC [1, 3]: 84.7 ng·h/mL | Cmax [1, 4]: 849 ng/mL | AUC [1, 4]: 75.2 ng·h/mL | Cmax [1, 5]: 837 ng/mL | AUC [1, 5]: 86.4 ng·h/mL | Cmax [1, 6]: 726 ng/mL | AUC [1, 6]: 69.5 ng·h/mL | Cmax ([1]; Yucatan miniswine, 3 × 3 mm × 34 g, 30 mg/ml): 649 ng/mL | Cmax [1, 7]: 527 ng/mL | AUC [1, 7]: 45.3 ng·h/mL | Cmax [1, 8]: 706 ng/mL | AUC [1, 8]: 52.8 ng·h/mL | AUC ([1]; Yucatan, 3 × 3 mm × 34 g, 30 mg/ml): 53.4 ng·h/mL | Cmax ([1]; Yucatan, iv, 12 mg/ml): 661 ng/mL | AUC ([1]; Yucatan, iv, 12 mg/ml): 59.8 ng·h/mL | Erythema Mean ([2]; 4 h): 0.1 | Erythema Median ([2]; 4 h): 0.2 | Edema Median ([2]; 6 h): 0 | Edema Median ([2]; 8 h): 0 | Edema Mean ([2]; 24 h): 0.0 | Edema Median ([2]; 24 h): 0 | Erythema Mean ([2]; 24 h): 0.0 | Erythema Median ([2]; 24 h): 0.0
